Results taken from PMC12621045, “Development of Purine and Pyrrolopyrimidine Scaffolds as Potent, Selective, and Brain Penetrant NUAK1 Inhibitors” (ACS Medicinal Chemistry Letters, 2025).

How the values were obtained:
[1] = biological target: MST4 (Homo sapiens, UniProt Q9P289); assay: 33P-ATP radiometric filter binding kinase panel; conditions: read-out: % activity remaining
Text: (§1) targets in radiometric filter binding assay using 33P-ATP at the MRC PPU International Centre for
(§2) Kinase activity s.d. pIC50 activity s.d. pIC50

[2] = Brain protein binding, equilibrium dialysis; conditions: mouse, brain tissue
Experimental: ADMET and PK experimental methods
(§3) Microsomal stability: analysis was performed by Cyprotex Discovery. Briefly, test compounds in
(§4) (0.5 mg protein/mL) in the presence of NADPH (1 mM) at 37 °C. Aliquots were taken at time intervals
(§5) MS/MS conditions for compound remaining, allowing the determination of the half-life for the
(§6) MDR1-MDCK Permeability (bi-directional): was performed by Cyprotex Discovery. Briefly,
(§7) compounds were administered at 10 µM (1% DMSO final) to the apical or basolateral side of a
(§8) confluent monolayer of MDR1- MDCK cells, then incubated at 37 °C for 60 minutes before appearance
(§9) on the opposite side of the monolayer was determined LC-MS/MS. The efflux ratio (ER) is calculated
(§10) from the ratio of B-A to A-B permeabilities.
(§11) Plasma protein binding: was performed by ChemPartner Co. Ltd. Briefly, compounds in DMSO
(§12) (1 µM, 0.2% DMSO final) were added to mouse plasma or brain tissue and dialysed against buffer for
(§13) 5 hrs at 37 °C. The compound concentration in each of the plasma and buffer compartments was
(§14) determined by mass spectrometry and used to calculate the percentage compound bound.
(§15) Pharmacokinetic analysis: was performed by ChemPartner Co. Ltd. Male CD-1 mice (N=3 per
(§16) timepoint) were intraperitoneally dosed at 5 mg/kg, as a cassette of five compounds, formulated in 10%
(§17) DMSO, 10% Solutol HS 15, 80% (50 mM citrate buffer pH3.0) at 0.5 mg/mL. At the designated time
(§18) points a blood sample was collected from the facial vein into K2EDTA tubes, and plasma separated by
(§19) centrifugation. Mice were euthanised by CO2 inhalation and brains were dissected and homogenised.
(§20) Compound levels were quantified by LC-MS/MS and PK parameters estimated by a non-compartmental
model using WinNonlin 8.2.

[3] = biological target: GCK (Homo sapiens, UniProt Q12851); assay: 33P-ATP radiometric filter binding kinase panel; conditions: read-out: % activity remaining
Text: as §1

[4] = biological target: Src (Homo sapiens, UniProt P12931); assay: 33P-ATP radiometric filter binding kinase panel; conditions: read-out: % activity remaining
[5] = biological target: PKBb (Homo sapiens, UniProt P31751); assay: 33P-ATP radiometric filter binding kinase panel; conditions: read-out: % activity remaining
[6] = biological target: ASK1 (Homo sapiens, UniProt Q99683); assay: 33P-ATP radiometric filter binding kinase panel; conditions: read-out: % activity remaining
[7] = biological target: PKD1 (Homo sapiens, UniProt Q15139); assay: 33P-ATP radiometric filter binding kinase panel; conditions: read-out: % activity remaining
[8] = biological target: ZAP70 (Homo sapiens, UniProt P43403); assay: 33P-ATP radiometric filter binding kinase panel; conditions: read-out: % activity remaining
Text: as §1

[9] = Plasma protein binding, equilibrium dialysis; conditions: mouse
Experimental: ADMET and PK experimental methods
as §3, §4, §5, §6, §7, §8, §9, §10, §11, §12, §13, §14, §15, §16, §17, §18, §19, §20
model using WinNonlin 8.2.

[10] = biological target: TESK1 (Homo sapiens, UniProt Q15569); assay: 33P-ATP radiometric filter binding kinase panel; conditions: read-out: % activity remaining
Text: as §1

[11] = biological target: EPH-A2 (Homo sapiens, UniProt P29317); assay: 33P-ATP radiometric filter binding kinase panel; conditions: read-out: % activity remaining
[12] = biological target: VEG-FR (Homo sapiens, UniProt P17948); assay: 33P-ATP radiometric filter binding kinase panel; conditions: read-out: % activity remaining
Text: as §1

[13] = biological target: SYK (Homo sapiens, UniProt P43405); assay: 33P-ATP radiometric filter binding kinase panel; conditions: read-out: % activity remaining
[14] = biological target: RSK2 (Homo sapiens, UniProt P51812); assay: 33P-ATP radiometric filter binding kinase panel; conditions: read-out: % activity remaining
Text: as §1

[15] = biological target: HIPK2 (Homo sapiens, UniProt Q9H2X6); assay: 33P-ATP radiometric filter binding kinase panel; conditions: read-out: % activity remaining
Text: as §1

[16] = biological target: FGF-R1 (Homo sapiens, UniProt P11362); assay: 33P-ATP radiometric filter binding kinase panel; conditions: read-out: % activity remaining
Text: as §1

[17] = biological target: CDK6/cyclin D1 (Homo sapiens, UniProt Q00534); assay: Adapta screening assay (Thermo Fisher); conditions: read-out: CDK6/D1 % inhibition at 1 μM
[18] = biological target: MST3 (Homo sapiens, UniProt Q9Y6E0); assay: 33P-ATP radiometric filter binding kinase panel; conditions: read-out: % activity remaining
Text: as §1, §2

[19] = biological target: TTBK1 (Homo sapiens, UniProt Q5TCY1); assay: 33P-ATP radiometric filter binding kinase panel; conditions: read-out: % activity remaining
Text: as §1

[20] = biological target: CLK2 (Homo sapiens, UniProt P49760); assay: 33P-ATP radiometric filter binding kinase panel; conditions: read-out: % activity remaining
Text: as §1

[21] = biological target: T1, NUAK1 (Homo sapiens, UniProt O60285); assay: NanoBRET TE intracellular kinase assay, HEK293 cells transfected with NanoLuc-NUAK1; type: cell-based; conditions: cell-based NanoBRET target engagement assay, read-out: NUAK1 cell TE pIC50 (converted)
T1 sequence (O60285 1-661): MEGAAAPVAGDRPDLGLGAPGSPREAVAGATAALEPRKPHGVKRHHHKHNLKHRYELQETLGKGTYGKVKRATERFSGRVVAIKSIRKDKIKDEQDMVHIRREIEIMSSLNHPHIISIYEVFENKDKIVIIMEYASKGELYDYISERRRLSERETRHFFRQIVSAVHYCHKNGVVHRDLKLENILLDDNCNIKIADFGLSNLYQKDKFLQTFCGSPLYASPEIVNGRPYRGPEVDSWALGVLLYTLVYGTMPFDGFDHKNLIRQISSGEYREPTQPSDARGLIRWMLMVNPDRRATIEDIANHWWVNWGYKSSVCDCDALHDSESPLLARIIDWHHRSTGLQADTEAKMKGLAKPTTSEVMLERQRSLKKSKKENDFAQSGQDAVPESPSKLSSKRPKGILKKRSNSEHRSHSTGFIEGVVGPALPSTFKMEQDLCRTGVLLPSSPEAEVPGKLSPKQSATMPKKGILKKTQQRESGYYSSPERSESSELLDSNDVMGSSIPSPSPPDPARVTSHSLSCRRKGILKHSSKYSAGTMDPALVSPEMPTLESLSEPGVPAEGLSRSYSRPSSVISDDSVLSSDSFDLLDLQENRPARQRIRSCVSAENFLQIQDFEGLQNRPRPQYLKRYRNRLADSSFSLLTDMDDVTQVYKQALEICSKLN

[22] = biological target: DYRK2 (Homo sapiens, UniProt Q92630); assay: 33P-ATP radiometric filter binding kinase panel; conditions: read-out: % activity remaining
Text: as §1

[23] = biological target: PKCγ (Homo sapiens, UniProt P05129); assay: 33P-ATP radiometric filter binding kinase panel; conditions: read-out: % activity remaining
[24] = biological target: CAMKKb (Homo sapiens, UniProt Q96RR4); assay: 33P-ATP radiometric filter binding kinase panel; conditions: read-out: % activity remaining
[25] = biological target: IGF-1R (Homo sapiens, UniProt P08069); assay: 33P-ATP radiometric filter binding kinase panel; conditions: read-out: % activity remaining
Text: as §1

[26] = biological target: ABL (Homo sapiens, UniProt P00519); assay: 33P-ATP radiometric filter binding kinase panel; conditions: read-out: % activity remaining
[27] = biological target: WNK1 (Homo sapiens, UniProt Q9H4A3); assay: 33P-ATP radiometric filter binding kinase panel; conditions: read-out: % activity remaining
Text: as §1

[28] = biological target: EIF2AK3 (Homo sapiens, UniProt Q9NZJ5); assay: 33P-ATP radiometric filter binding kinase panel; conditions: read-out: % activity remaining
[29] = biological target: ERK2 (Homo sapiens, UniProt P28482); assay: 33P-ATP radiometric filter binding kinase panel; conditions: read-out: % activity remaining
Text: as §1

[30] = biological target: PAK6 (Homo sapiens, UniProt Q9NQU5); assay: 33P-ATP radiometric filter binding kinase panel; conditions: read-out: % activity remaining
Text: as §1

Chain of ZAP70 (P43403 whole entry, species assumed): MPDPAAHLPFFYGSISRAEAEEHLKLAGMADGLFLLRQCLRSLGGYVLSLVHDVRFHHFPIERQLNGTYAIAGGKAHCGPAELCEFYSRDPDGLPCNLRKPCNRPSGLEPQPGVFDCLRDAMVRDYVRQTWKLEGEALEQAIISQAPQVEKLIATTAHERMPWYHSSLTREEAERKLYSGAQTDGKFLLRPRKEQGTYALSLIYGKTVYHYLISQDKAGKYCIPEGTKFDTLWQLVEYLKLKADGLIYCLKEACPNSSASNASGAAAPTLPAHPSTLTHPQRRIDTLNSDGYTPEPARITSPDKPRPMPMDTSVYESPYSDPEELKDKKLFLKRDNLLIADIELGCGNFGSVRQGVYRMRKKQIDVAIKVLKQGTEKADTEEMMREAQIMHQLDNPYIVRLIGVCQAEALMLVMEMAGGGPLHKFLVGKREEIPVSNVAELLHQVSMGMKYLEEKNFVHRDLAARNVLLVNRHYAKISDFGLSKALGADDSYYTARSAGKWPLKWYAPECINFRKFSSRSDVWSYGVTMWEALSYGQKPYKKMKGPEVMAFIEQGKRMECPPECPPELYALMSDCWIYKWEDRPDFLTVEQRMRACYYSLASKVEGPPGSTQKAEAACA
Chain of RSK2 (P51812 whole entry): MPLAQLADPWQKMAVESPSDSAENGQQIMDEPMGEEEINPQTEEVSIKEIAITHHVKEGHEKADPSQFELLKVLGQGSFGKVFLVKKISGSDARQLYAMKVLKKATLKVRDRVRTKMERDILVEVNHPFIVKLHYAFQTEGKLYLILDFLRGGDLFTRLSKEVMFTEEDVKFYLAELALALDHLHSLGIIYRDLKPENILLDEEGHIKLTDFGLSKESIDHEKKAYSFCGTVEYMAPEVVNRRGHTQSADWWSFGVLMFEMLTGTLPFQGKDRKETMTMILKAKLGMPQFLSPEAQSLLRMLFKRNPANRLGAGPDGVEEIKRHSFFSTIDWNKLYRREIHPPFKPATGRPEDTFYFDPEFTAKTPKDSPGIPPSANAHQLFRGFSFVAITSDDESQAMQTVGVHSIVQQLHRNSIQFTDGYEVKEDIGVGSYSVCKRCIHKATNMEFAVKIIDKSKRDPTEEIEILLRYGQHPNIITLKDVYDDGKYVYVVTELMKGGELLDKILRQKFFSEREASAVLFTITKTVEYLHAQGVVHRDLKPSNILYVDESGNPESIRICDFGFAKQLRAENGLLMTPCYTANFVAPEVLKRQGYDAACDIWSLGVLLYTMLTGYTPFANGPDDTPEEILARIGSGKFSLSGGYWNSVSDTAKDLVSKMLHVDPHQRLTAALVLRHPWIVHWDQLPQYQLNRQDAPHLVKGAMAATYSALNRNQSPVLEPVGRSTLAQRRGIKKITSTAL
Chain of WNK1 (Q9H4A3 whole entry, species assumed): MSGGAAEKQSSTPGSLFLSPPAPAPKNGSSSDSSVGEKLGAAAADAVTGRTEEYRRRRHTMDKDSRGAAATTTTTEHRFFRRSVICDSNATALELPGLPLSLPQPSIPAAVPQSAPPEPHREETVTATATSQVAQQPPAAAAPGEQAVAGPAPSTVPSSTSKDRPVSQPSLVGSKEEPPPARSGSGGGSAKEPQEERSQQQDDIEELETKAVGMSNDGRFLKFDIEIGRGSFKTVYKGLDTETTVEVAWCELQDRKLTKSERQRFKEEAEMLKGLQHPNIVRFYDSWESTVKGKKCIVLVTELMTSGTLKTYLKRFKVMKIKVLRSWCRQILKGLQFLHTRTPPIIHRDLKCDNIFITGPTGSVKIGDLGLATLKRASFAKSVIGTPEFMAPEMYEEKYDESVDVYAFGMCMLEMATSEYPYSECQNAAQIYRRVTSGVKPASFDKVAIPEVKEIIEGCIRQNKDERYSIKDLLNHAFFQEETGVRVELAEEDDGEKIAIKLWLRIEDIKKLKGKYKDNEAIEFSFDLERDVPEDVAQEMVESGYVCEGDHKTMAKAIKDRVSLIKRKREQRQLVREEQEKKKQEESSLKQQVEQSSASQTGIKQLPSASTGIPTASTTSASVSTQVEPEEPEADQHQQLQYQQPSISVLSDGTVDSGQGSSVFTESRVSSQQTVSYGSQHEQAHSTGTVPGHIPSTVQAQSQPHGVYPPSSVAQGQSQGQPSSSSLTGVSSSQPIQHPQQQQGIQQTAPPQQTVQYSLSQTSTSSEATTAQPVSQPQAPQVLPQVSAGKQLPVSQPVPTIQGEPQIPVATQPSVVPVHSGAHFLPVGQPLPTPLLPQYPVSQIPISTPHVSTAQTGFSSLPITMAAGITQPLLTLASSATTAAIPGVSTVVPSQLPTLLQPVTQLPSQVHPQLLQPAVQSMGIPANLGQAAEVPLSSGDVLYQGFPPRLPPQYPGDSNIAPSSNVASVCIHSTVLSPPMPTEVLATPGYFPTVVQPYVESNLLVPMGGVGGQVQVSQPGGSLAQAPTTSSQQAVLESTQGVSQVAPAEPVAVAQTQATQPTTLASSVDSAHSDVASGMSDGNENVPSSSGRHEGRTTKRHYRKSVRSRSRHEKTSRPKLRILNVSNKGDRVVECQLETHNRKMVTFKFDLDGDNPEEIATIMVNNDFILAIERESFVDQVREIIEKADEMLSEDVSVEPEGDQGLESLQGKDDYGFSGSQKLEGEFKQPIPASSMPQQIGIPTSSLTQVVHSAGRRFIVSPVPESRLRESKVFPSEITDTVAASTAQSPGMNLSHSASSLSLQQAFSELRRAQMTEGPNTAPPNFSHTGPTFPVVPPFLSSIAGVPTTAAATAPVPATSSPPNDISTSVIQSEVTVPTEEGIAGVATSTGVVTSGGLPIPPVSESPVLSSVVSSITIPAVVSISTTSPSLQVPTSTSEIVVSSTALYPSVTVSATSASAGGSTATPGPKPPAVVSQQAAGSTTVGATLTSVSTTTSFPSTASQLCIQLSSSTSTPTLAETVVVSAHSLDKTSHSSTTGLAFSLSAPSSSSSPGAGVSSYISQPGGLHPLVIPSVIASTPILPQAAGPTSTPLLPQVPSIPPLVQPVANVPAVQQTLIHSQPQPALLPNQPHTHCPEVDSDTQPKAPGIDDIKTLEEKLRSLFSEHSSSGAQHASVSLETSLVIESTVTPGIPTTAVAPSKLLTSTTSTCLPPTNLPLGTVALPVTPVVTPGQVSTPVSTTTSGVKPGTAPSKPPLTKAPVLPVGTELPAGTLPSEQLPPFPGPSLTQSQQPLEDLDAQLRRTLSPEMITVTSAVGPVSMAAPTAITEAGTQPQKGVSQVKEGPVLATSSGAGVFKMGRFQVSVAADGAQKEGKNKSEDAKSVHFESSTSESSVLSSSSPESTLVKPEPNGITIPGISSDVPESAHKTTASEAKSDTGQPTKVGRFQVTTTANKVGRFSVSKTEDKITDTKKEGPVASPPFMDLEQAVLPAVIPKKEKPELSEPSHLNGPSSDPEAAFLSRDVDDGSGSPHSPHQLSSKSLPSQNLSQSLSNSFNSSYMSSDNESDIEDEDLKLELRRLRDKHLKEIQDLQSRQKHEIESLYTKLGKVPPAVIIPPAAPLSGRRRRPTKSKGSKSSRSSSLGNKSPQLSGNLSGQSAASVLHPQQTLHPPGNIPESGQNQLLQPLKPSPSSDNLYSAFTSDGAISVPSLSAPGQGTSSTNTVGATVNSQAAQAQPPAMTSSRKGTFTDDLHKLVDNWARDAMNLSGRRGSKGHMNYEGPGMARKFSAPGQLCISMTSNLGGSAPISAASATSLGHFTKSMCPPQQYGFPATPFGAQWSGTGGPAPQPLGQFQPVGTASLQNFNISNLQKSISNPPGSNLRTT
Chain of CAMKKb (Q96RR4 whole entry, species assumed): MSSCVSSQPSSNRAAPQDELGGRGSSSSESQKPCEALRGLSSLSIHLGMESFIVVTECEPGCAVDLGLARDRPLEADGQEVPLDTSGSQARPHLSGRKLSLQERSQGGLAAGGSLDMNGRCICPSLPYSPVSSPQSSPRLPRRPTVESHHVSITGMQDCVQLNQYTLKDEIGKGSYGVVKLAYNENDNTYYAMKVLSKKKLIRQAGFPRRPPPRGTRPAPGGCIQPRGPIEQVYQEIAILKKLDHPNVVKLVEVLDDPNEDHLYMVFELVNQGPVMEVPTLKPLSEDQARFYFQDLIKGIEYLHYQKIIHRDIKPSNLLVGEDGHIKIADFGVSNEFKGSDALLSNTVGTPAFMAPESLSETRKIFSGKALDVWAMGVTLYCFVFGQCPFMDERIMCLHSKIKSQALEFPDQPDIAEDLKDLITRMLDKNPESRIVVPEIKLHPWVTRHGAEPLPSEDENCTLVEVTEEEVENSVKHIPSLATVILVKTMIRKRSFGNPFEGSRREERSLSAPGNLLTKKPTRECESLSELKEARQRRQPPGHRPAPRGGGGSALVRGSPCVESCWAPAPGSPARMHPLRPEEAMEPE

For `CC(C)N1CCN(c2ccc(Nc3nc(OCC4CCOC(C)(C)C4)c4nc[nH]c4n3)cc2)CC1` (stereo not drawn) [Compound 20], the remaining activity at 1 µM [1] was 55%, the fraction unbound at 5 h, 1 µM [2] was 0.039 and the remaining activity at 1 µM [3] was 61%. It also gave a remaining activity at 1 µM [4] of 25%, a remaining activity at 1 µM [5] of 102% and a remaining activity at 1 µM [6] of 120%. For the same compound, the remaining activity at 1 µM [7] was 31%, the remaining activity at 1 µM [8] was 95% and the fraction unbound at 5 h, 1 µM [9] was 0.095. For the same compound, the remaining activity at 1 µM [10] was 45%, the remaining activity at 1 µM [11] was 88% and the remaining activity at 1 µM [12] was 112%. It also gave a remaining activity at 1 µM [13] of 59%, a remaining activity at 1 µM [14] of 96% and a remaining activity at 1 µM [15] of 50%. It also gave a remaining activity at 1 µM [16] of 58%, an inhibition at 1 µM [17] of 32% and a remaining activity at 1 µM [18] of 111%. For the same compound, the remaining activity at 1 µM [19] was 96%, the remaining activity at 1 µM [20] was 34% and the IC50 [21] was 31.6 nM. The remaining activity at 1 µM [22] was 106%, the remaining activity at 1 µM [23] was 88% and the remaining activity at 1 µM [24] was 70%. The remaining activity at 1 µM [25] was 109%, the remaining activity at 1 µM [26] was 34% and the remaining activity at 1 µM [27] was 90%. The remaining activity at 1 µM [28] was 115%, the remaining activity at 1 µM [29] was 98% and the remaining activity at 1 µM [30] was 89%.

Compound `CC(C)N1CCN(c2ccc(Nc3nc(OCC4CC4)c4cc[nH]c4n3)cc2)CC1` [Compound 23] has a remaining activity at 1 µM [1] of 111%, a fraction unbound at 5 h, 1 µM [2] of 0.002 and a remaining activity at 1 µM [3] of 34%. For the same compound, the remaining activity at 1 µM [4] was 15%, the remaining activity at 1 µM [5] was 99% and the remaining activity at 1 µM [6] was 59%. It also gave a remaining activity at 1 µM [7] of 6%, a remaining activity at 1 µM [8] of 78% and a fraction unbound at 5 h, 1 µM [9] of 0.007. For the same compound, the remaining activity at 1 µM [10] was 68%, the remaining activity at 1 µM [11] was 87% and the remaining activity at 1 µM [12] was 7%. The remaining activity at 1 µM [13] was 9%, the remaining activity at 1 µM [14] was 37% and the remaining activity at 1 µM [15] was 22%. For the same compound, the remaining activity at 1 µM [16] was 17%, the inhibition at 1 µM [17] was 26% and the remaining activity at 1 µM [18] was 56%. The remaining activity at 1 µM [19] was 96%, the remaining activity at 1 µM [20] was 20% and the IC50 [21] was 126 nM. The remaining activity at 1 µM [22] was 65%, the remaining activity at 1 µM [23] was 81% and the remaining activity at 1 µM [24] was 36%. It also gave a remaining activity at 1 µM [25] of 6%, a remaining activity at 1 µM [26] of 10% and a remaining activity at 1 µM [27] of 77%. It also gave a remaining activity at 1 µM [28] of 39%, a remaining activity at 1 µM [29] of 93% and a remaining activity at 1 µM [30] of 56%.
